From paper PMC9318133 (International Journal of Molecular Sciences, 2022)
Where two headings read alike, the source gives them in different places.

Legend:
CD-1 mice [1] = tested on: CD-1 mice; design: method as in PMID 25769232, PMID 25987201; conditions: ED50 + SEM, data elaborated from ref [33],[34]; cited from earlier work
human CB2 receptors [2] = molecular target: T1, human CB2 receptors (Homo sapiens, UniProt P34972); design: method as in PMID 27527584, PMID 25769232; conditions: read-out: hCB2 CHO Cells IC50; cyclic AMP experiments; mean ± SEM; data elaborated from ref [15],[33]; cited from earlier work
T1 construct: host or cells: CHO cells
T1 sequence (P34972 whole entry): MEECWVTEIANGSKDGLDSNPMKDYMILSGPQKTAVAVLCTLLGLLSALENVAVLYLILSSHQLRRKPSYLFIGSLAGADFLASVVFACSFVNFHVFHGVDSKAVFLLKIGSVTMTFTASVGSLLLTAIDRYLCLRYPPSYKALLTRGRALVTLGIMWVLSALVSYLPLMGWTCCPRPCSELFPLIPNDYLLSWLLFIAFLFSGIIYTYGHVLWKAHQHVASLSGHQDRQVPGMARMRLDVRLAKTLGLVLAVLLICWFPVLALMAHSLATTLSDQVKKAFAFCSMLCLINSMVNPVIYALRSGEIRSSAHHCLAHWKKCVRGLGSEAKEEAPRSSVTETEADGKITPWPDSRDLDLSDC

human CB2 receptors [3] = molecular target: T1, human CB2 receptors; design: method as in PMID 27527584, PMID 25769232; conditions: read-out: hCB2 CHO Membranes Ki; [3H]-CP-55,940 competition binding; mean ± SEM; data elaborated from ref [15],[33]; cited from earlier work
CD-1 mice [4] = tested on: CD-1 mice; design: method as in PMID 25769232, PMID 25987201; conditions: ED50 + SEM, data elaborated from ref [33],[34]; cited from earlier work; remark: listed apart in the source
human CB1 receptors [5] = molecular target: T2, human CB1 receptors (Homo sapiens, UniProt P21554); design: method as in PMID 27527584, PMID 25769232; conditions: read-out: hCB1 CHO Cells IC50; cyclic AMP experiments; mean ± SEM; data elaborated from ref [15],[33]; cited from earlier work
T2 construct: host or cells: CHO cells
T2 sequence (P21554 whole entry): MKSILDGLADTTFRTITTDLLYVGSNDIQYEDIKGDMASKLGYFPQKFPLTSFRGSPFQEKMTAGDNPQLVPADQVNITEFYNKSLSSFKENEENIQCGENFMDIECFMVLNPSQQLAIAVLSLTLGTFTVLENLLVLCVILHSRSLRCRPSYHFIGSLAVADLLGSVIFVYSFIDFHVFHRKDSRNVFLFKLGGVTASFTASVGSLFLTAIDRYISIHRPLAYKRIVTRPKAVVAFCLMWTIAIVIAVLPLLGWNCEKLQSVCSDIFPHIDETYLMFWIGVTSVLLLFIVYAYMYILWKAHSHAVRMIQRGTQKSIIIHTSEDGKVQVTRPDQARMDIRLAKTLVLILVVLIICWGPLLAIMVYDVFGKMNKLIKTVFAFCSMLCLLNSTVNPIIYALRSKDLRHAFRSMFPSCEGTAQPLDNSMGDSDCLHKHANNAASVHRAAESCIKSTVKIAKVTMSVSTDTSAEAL

CD-1 mice [6] = tested on: CD-1 mice; design: method as in PMID 25769232, PMID 25987201; conditions: ED50 + SEM, data elaborated from ref [33],[34]; cited from earlier work; remark: listed apart in the source
human CB1 receptors [7] = molecular target: T2, human CB1 receptors; assay: Cyclic AMP assay (forskolin-stimulated) in CHO cells transfected with human CB1 receptors; assay type: cell-based
Protocol: Chinese hamster ovarian (CHO) cells transfected with human CB1 or CB2 receptors (Perkin Elmer Life and Analytical Sciences, Melville, NY, USA) were grown adherently and maintained in Ham’s F12 containing 10% fetal bovine serum, penicillin (100 U/mL), streptomycin (100 µg/mL), and Geneticin (G418, 0.4 mg/mL) at 37 °C in 5% CO2/95% air. To obtain membranes, cells were washed with phosphate-buffered saline (PBS) and scraped off with ice-cold hypotonic buffer (5 mM Tris HCl, 2 mM EDTA, pH 7.4). The cell suspension was homogenized with a Polytron and then centrifuged for 30 min at 40,000× g. […]
The protein concentration was determined according to a Bio-Rad method with bovine serum albumin as a reference standard. Inhibitory binding constants, Ki, were calculated from the IC50 values according to the Cheng and Prusoff equation:Ki = IC50/(1 + [C*]/KD*) where [C*] is the concentration of the radioligand and KD* its dissociation constant. Functional experiments were analyzed by non-linear regression analysis using the equation for a sigmoid concentration–response curve (GraphPad Prism, San Diego, CA, USA). All the data are expressed as the mean ± SEM of three independent experiments.

CD-1 mice [8] = assay: Core (rectal) temperature evaluation; assay type: in vivo, mouse
CD-1 mice [9] = assay: Acoustic response (startle reflex) test; assay type: in vivo, mouse
mouse CB2 receptors = molecular target: T3, mouse CB2 receptors (Mus musculus, UniProt P47936); assay: [3H]-CP-55,940 competition binding, mouse spleen membranes
T3 construct: membranes from the mouse brain and spleen were used, respectively; from tissue; host or cells: mouse spleen membranes, CD-1 mice
T3 sequence (P47936 whole entry): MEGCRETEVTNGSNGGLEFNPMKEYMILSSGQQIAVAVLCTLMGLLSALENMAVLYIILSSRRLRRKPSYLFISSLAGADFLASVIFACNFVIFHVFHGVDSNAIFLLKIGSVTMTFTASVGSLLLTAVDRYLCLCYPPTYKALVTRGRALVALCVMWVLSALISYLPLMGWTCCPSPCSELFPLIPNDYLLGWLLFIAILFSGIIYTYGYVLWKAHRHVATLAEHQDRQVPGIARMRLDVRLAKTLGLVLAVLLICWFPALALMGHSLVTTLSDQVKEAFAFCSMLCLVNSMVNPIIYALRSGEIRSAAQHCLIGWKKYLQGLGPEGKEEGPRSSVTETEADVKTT
Protocol: (§1) Following excision from mice, tissues were suspended in 50 mM Tris HCl, pH 7.4, at 4 °C. The mouse brain and spleen tissues were homogenized with a Polytron and subsequently centrifuged for 10 min at 2000× g. The resulting supernatants were filtered and centrifuged for 20 min at 40,000× g, and the pellets were used for competition binding experiments.
(§2) Competition binding experiments were carried out by incubating 0.5 nM [3H]-CP-55,940 (Perkin Elmer Life and Analytical Sciences, Waltham, MA, USA) and different concentrations of the tested compounds for 90 or 60 min at 30 °C for CB1 or CB2 receptors, respectively. […] Non-specific binding was determined in the presence of 1 μM WIN 55,212-2 [92]. Bound and free radioactivity were separated by filtering the assay mixture through Whatman GF/C glass fiber filters using a Brandel cell harvester (Brandel Instruments, Unterföhring, Germany). The filter-bound radioactivity was counted using a Packard Tri Carb 2810 TR scintillation counter (Perkin Elmer Life and Analytical Sciences, Waltham, MA, USA).
(§3) The protein concentration was determined according to a Bio-Rad method with bovine serum albumin as a reference standard. Inhibitory binding constants, Ki, were calculated from the IC50 values according to the Cheng and Prusoff equation:Ki = IC50/(1 + [C*]/KD*) where [C*] is the concentration of the radioligand and KD* its dissociation constant. […]

mouse CB1 receptors = molecular target: T4, mouse CB1 receptors (Mus musculus, UniProt P47746); assay: [3H]-CP-55,940 competition binding, mouse brain (cortex) membranes
T4 construct: membranes from the mouse brain and spleen were used, respectively; from tissue
T4 sequence (P47746 whole entry): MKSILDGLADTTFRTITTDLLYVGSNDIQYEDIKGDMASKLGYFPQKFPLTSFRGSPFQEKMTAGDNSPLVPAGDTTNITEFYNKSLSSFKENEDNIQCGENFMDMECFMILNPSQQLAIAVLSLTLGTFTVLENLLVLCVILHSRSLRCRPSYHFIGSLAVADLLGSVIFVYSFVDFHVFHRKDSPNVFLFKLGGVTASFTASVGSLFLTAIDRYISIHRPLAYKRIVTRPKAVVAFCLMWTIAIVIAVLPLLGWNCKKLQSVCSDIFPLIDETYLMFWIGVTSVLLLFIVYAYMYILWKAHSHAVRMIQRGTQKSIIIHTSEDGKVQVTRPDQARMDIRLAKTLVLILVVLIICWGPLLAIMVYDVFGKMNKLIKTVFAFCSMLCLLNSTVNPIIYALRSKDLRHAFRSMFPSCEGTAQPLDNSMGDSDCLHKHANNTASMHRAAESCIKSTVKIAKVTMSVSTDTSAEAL
Protocol: as §1, §2, §3

CD-1 mice [10] = assay: Drag test (number of steps); assay type: in vivo, mouse
human CB2 receptors [11] = molecular target: T1, human CB2 receptors; assay: Cyclic AMP assay (forskolin-stimulated) in CHO cells transfected with human CB2 receptors; assay type: cell-based
Protocol: CHO cells transfected with human CB1 or CB2 receptors were washed with PBS, detached with trypsin, and centrifuged for 10 min at 200× g.

[12] = 0.01–30 mg/kg i.p., monitored over 5 h
[13] = Mus musculus, ip, mice, ED50 + SEM

SMILES | ED50 Startle Reflex (CD-1 mice [1]) [mg/kg] | IC50 (human CB2 receptors [2]) [nM] | Ki (human CB2 receptors [3]) [nM] | ED50 Drag Test (CD-1 mice [4]) [mg/kg] | IC50 (human CB1 receptors [5]) [nM] | ED50 Visual Placing (CD-1 mice [6]) [mg/kg] | IC50 (human CB1 receptors [7]) [nM] | effect on core temperature (CD-1 mice [8]; [12]) | ED50 (CD-1 mice [8]; [13]) [mg/kg] | effect on acoustic response (CD-1 mice [9]; [12]) | ED50 (CD-1 mice [9]; [13]) [mg/kg] | Ki (mouse CB2 receptors) [nM] | Ki (mouse CB1 receptors) [nM] | effect on motor activity in the drag test at low dose (CD-1 mice [10]; 0.1 mg/kg i.p., lasted up to 280 min) | effect on motor activity in the drag test at higher doses (CD-1 mice [10]; 6–30 mg/kg i.p.) | ED50 (CD-1 mice [10]; Mus musculus, ip, mice, ED50 + SEM, calculated on inhibitory effect of the highest doses) [mg/kg] | IC50 (human CB2 receptors [11]) [nM]
CCCCCn1cc(C(=O)c2cccc3ccccc23)c2ccccc21 [JWH-018, 1-naphthalenyl(1-pentyl-1H-indol-3-yl)-methanone] | 0.53 ± 0.05 | 11.6 ± 0.97 | 8.63 ± 0.69 | 2.4 ± 0.12 | 13.7 ± 1.04 | 0.7 ± 0.06 |  |  |  |  |  |  |  |  |  |  | 
CCCCCn1cc(Cc2cccc3ccccc23)c2ccccc21 [JWH-175, 3-(1-naphthalenylmethyl)-1-pentyl-1H-indole] |  |  |  |  |  |  | 72 ± 5 | reduced | 5.6 ± 0.04 | dose-dependently reduced | 4 ± 0.03 | 487 ± 39 | 33.6 ± 2.4 | facilitated | inhibited | 10.9 ± 0.12 | 864 ± 61
